# Source: patent US5140009A (Tap Pharmaceuticals, Inc., priority 1990, dated 1992)
# Numbered stars: 1 amine (or outer) side, 2 acyl side, 3 side chain; on linkers, the order of the positions; unused ones are H or OH. Square brackets hold non-standard residues; d marks the D form. Peptide text beside a SMILES is read from it. * marks the point of attachment. Propanoyl(3-indol-3-yl) = O=C(CCc1c[nH]c2ccccc12)*; Propanoyl(3-(4-F-phenyl)) = O=C(CCc1ccc(F)cc1)*; Acryloyl(3-(pyridin-3-yl)) = O=C(C=Cc1cccnc1)*; Phe(4-Cl) = N[C@@H](Cc1ccc(Cl)cc1)C(=O)O; X10 = O=C([C@@H](Cc1cncs1)N[*:1])[*:2]; 1Nal = N[C@@H](Cc1cccc2ccccc12)C(=O)O; 2Nal = N[C@@H](Cc1ccc2ccccc2c1)C(=O)O; d1Nal = N[C@H](Cc1cccc2ccccc12)C(=O)O; Lys(iPr) = CC(C)NCCCC[C@H](N)C(=O)O; NMeY = CN[C@@H](Cc1ccc(O)cc1)C(=O)O; Hydrocinnamoyl = O=C(CCc1ccccc1)*; Benzoyl(4-F) = O=C(c1ccc(F)cc1)*; NMeF = CN[C@@H](Cc1ccccc1)C(=O)O; Piperazinyl(4-Me) = CN1CCN(*)CC1; X13 = O=C(CCc1ccc(C(F)(F)F)cc1)*; d3Pal = N[C@H](Cc1cccnc1)C(=O)O; d2Thi = N[C@H](Cc1cccs1)C(=O)O; Nicotinoyl = O=C(c1cccnc1)*; X9 = O=C(CCc1ccc(Br)cc1)*; Morpholide = C1CN(*)CCO1; Orn = NCCC[C@H](N)C(=O)O; PhAc = O=C(Cc1ccccc1)*; CO = O=C([*:1])[*:2]
# Biological target: T1, LHRH receptors (Rattus norvegicus, UniProt P30969)
# T1 construct: Pituitary membranes containing LHRH receptors are prepared in batches from quick-frozen rat pituitaries; tissue Hilltop Labs; host or cells: rat pituitary membranes
# T1 sequence (P30969 1-327): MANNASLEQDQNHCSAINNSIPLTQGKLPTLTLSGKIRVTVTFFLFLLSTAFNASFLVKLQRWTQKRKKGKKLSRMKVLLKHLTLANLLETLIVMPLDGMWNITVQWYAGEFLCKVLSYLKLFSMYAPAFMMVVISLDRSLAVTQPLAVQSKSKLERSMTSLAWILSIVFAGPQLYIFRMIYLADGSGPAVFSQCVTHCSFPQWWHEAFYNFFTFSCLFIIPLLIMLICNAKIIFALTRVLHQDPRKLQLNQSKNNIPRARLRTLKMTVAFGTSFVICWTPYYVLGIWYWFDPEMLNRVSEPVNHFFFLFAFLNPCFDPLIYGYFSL
# Assay: Receptor Binding (radioligand receptor binding assay)
# Conditions: table 3; rat pituitary membranes, radioiodinated [D-Leu^6 -des Gly^10 ]-LHRH ethyl amide 50 pM, 2 hours at 4° C.; read-out: Receptor Binding pkI (converted)
row,SMILES,Ki [nM]
1,"CCNC(=O)[C@@H]1CCCN1C(=O)[C@H](CCCN=C(N)N)NC(=O)[C@H](CC(C)C)NC(=O)[C@@H](Cc1ccc(O)cc1)NC(=O)[C@H](Cc1ccc(O)cc1)NC(=O)[C@H](CO)NC(=O)[C@H](Cc1c[nH]c2ccccc12)NC(=O)CCc1ccc(F)cc1 [Compound 92, (3-9)[N-(3-(4-Fluorophenyl)propionyl) -Trp^3 -D-Tyr^6 -Pro^9 NHEt]LHRH] ({Propanoyl(3-(4-F-phenyl))}-WSY[dY]LRP-NHEt)",0.0316
2,"CCNC(=O)[C@@H]1CCCN1C(=O)[C@H](CCCNC(=N)N)NC(=O)[C@H](CC(C)C)NC(=O)[C@@H](Cc1c[nH]c2ccccc12)NC(=O)[C@H](Cc1ccc(O)cc1)NC(=O)[C@H](CO)NC(=O)[C@H](Cc1ccc2ccccc2c1)NC(=O)N1CCOCC1 [Compound 138, N-(N-alpha-morpholinocarbonyl) -2-Nal-Ser-Tyr-D-Trp-Leu-Arg-ProNHEt] ({Morpholide-CO}-[2Nal]SY[dW]LRP-NHEt)",1
3,"CCNC(=O)[C@@H]1CCCN1C(=O)[C@H](CCCNC(=N)N)NC(=O)[C@H](CC(C)C)NC(=O)[C@@H](CC(C)C)NC(=O)[C@H](Cc1ccc(O)cc1)NC(=O)[C@H](CO)NC(=O)[C@H](Cc1c[nH]c2ccccc12)NC(=O)Cc1ccccc1 [Compound 68, (3-9)[N-(Phenylacetyl)-Trp^3 -D-Leu^6 -Pro^9 -NHEt]LHRH] (PhAc-WSY[dL]LRP-NHEt)",21.9
4,"CCNC(=O)[C@@H]1CCCN1C(=O)[C@H](CCCNC(=N)N)NC(=O)[C@H](CC(C)C)NC(=O)[C@@H](Cc1c[nH]c2ccccc12)NC(=O)[C@H](Cc1ccc(O)cc1)NC(=O)[C@H](CO)NC(=O)CCc1ccc(C(F)(F)F)cc1 [Compound 79, (4-9)[N-(3-(4-Trifluoromethylphenyl)propionyl)-Ser^4 -D-Trp^6 -Pro^9 NHEt]LHRH] (X13-SY[dW]LRP-NHEt)",1.95
5,"CCNC(=O)[C@@H]1CCCN1C(=O)[C@H](CCCNC(=N)N)NC(=O)[C@H](CC(C)C)NC(=O)[C@@H](Cc1c[nH]c2ccccc12)NC(=O)[C@H](Cc1ccc(O)cc1)NC(=O)[C@H](CO)NC(=O)[C@H](Cc1c[nH]c2ccccc12)NC(=O)[C@H](Cc1ccccc1)NC(=O)N1CCN(C)CC1 [Compound 128, (2-9)[N-(N-alpha-N-methylpiperazinocarbonyl)-Phe^2 -D-Trp^6 -Pro^9 NHEt]LHRH] ({Piperazinyl(4-Me)-CO}-FWSY[dW]LRP-NHEt)",0.447
6,"CCNC(=O)[C@@H]1CCCN1C(=O)[C@H](CCCN=C(N)N)NC(=O)[C@H](CC(C)C)NC(=O)[C@@H](CCCCNC(=O)c1cccnc1)NC(=O)[C@H](Cc1ccc(O)cc1)N(C)C(=O)[C@H](CO)NC(=O)[C@@H](Cc1c[nH]c2ccccc12)NC(=O)CCc1ccc(F)cc1 [Compound 122, N-(3-(4-Fluorophenyl)propionyl)-D-Trp-Ser-N-Me-Tyr-D -Lys(Nic)-Leu-Arg-ProNHEt] ({Propanoyl(3-(4-F-phenyl))}-[dW]S[NMeY][dK](Nicotinoyl)LRP-NHEt)",0.00955
7,"CCNC(=O)[C@@H]1CCCN1C(=O)[C@H](CCCNC(=N)N)NC(=O)[C@H](CC(C)C)NC(=O)[C@@H](CC(C)C)NC(=O)[C@H](Cc1ccc(O)cc1)NC(=O)[C@H](CO)NC(=O)[C@H](Cc1c[nH]c2ccccc12)NC(=O)CCc1ccccc1 [Compound 66, (3-9)[N-(3-Phenylpropionyl)-Trp^3 -D-Leu^6 -Pro^9 -NHEt]LHRH] (Hydrocinnamoyl-WSY[dL]LRP-NHEt)",1.78
8,"CCNC(=O)[C@@H]1CCCN1C(=O)[C@H](CCCNC(=N)N)NC(=O)[C@H](CC(C)C)NC(=O)[C@@H](Cc1c[nH]c2ccccc12)NC(=O)[C@H](Cc1ccc(O)cc1)NC(=O)[C@H](CO)NC(=O)[C@@H](Cc1ccc(O)cc1)NC(=O)[C@H](Cc1ccccc1)NC(=O)N1CCOCC1 [Compound 108, (2-9)[N-(N-alpha-Morpholinocarbonyl)-Phe^2 -D-Tyr^3 -D-Trp^6 -Pro^9 NHEt]LHRH] ({Morpholide-CO}-F[dY]SY[dW]LRP-NHEt)",0.182
9,"CCNC(=O)[C@@H]1CCCN1C(=O)[C@H](CCCNC(=N)N)NC(=O)[C@H](CC(C)C)NC(=O)[C@@H](Cc1c[nH]c2ccccc12)NC(=O)[C@H](Cc1ccc(O)cc1)NC(=O)[C@H](CO)NC(=O)C=Cc1cccnc1 [Compound 43, (4-9)[N-(3-(3-Pyridyl)acryloyl)-Ser^4 -D-Trp^6 -Pro^9 -NHEt]LHRH] ({Acryloyl(3-(pyridin-3-yl))}-SY[dW]LRP-NHEt)",646
10,"CCNC(=O)[C@@H]1CCCN1C(=O)[C@H](CCCNC(=N)N)NC(=O)[C@H](CC(C)C)NC(=O)[C@@H](CCCCNC(=O)c1cccnc1)NC(=O)[C@H](Cc1ccc(O)cc1)NC(=O)[C@H](CO)NC(=O)[C@H](Cc1c[nH]c2ccccc12)NC(=O)[C@H](Cc1ccccc1)NC(=O)N1CCOCC1 [Compound 117, N-(N-alpha-Morpholinocarbonyl)-Phe-Trp-Ser-Tyr-D-Lys(Nic) -Leu-Arg-ProNHEt] ({Morpholide-CO}-FWSY[dK](Nicotinoyl)LRP-NHEt)",1.86
11,"CCNC(=O)[C@@H]1CCCN1C(=O)[C@H](CCCNC(=N)N)NC(=O)[C@H](CC(C)C)NC(=O)[C@@H](CCCNC(=N)N)NC(=O)[C@H](Cc1ccc(O)cc1)NC(=O)[C@H](CO)NC(=O)CCc1c[nH]c2ccccc12 [Compound 35, (4-9)[N-(3-(3-Indole)propionyl)-Ser^4 -D-Arg^6 -Pro^9 -NHEt]LHRH] ({Propanoyl(3-indol-3-yl)}-SY[dR]LRP-NHEt)",204

# Same assay, conditions: table 4; rat pituitary membranes, radioligand 50 pM, 2 hours at 4° C.; read-out: Receptor Binding pkI (converted)
row,SMILES,Ki [nM]
1,"CC(C)C[C@H](NC(=O)[C@@H](CCCCN)NC(=O)[C@H](Cc1ccccc1)N(C)C(=O)[C@H](CO)NC(=O)[C@@H](Cc1cccc2ccccc12)NC(=O)CCc1ccc(F)cc1)C(=O)N[C@@H](CCCNC(=N)N)C(=O)N1CCC[C@H]1C(=O)N[C@H](C)C(N)=O [Compound 189, (3-10)[N-(3-(4-Fluorophenyl)propionyl)-D-1-Nal^3 -NMePhe^5 -D-Lys^6 -D-Ala^10]LHRH] ({Propanoyl(3-(4-F-phenyl))}-[d1Nal]S[NMeF][dK]LRP[dA]-NH2)",0.0055
2,"CC(=O)NCCC[C@H](NC(=O)c1ccc(F)cc1)C(=O)N[C@H](Cc1cccc2ccccc12)C(=O)N[C@@H](CO)C(=O)N(C)[C@@H](Cc1ccc(O)cc1)C(=O)N[C@H](Cc1cncs1)C(=O)N[C@@H](CC(C)C)C(=O)N[C@@H](CCCCNC(C)C)C(=O)N1CCC[C@H]1C(=O)N[C@H](C)C(N)=O [Compound 215, N-alpha-(4-Fluorobenzoyl)-Orn(N-delta-acetyl)-D-1-Nal-Ser-NMeTyr-D-Thiaz-Leu-Lys(N-epsilon-isopropyl)-Pro-D-AlaNH2] ({Benzoyl(4-F)}-[Orn](Ac)[d1Nal]S[NMeY][X10]L[Lys(iPr)]P[dA]-NH2)",0.339
3,"CC(C)C[C@H](NC(=O)[C@@H](Cc1cccnc1)NC(=O)[C@H](Cc1ccc(O)cc1)N(C)C(=O)[C@H](CO)NC(=O)[C@@H](Cc1cccc2ccccc12)NC(=O)CCc1ccc(F)cc1)C(=O)N[C@@H](CCCNC(=N)N)C(=O)N1CCC[C@H]1C(=O)N[C@H](C)C(N)=O [Compound 184, (3-10)[N-(3-(4-Fluorophenyl)propionyl)-D-1-Nal^3 -NMeTyr^5 -D-3-Pal^6 -D-Ala^10]LHRH] ({Propanoyl(3-(4-F-phenyl))}-[d1Nal]S[NMeY][d3Pal]LRP[dA]-NH2)",0.00631
4,"CC(C)C[C@H](NC(=O)[C@@H](CCCCN)NC(=O)[C@H](Cc1ccc(O)cc1)N(C)C(=O)[C@H](CO)NC(=O)[C@@H](Cc1cccc2ccccc12)NC(=O)CCc1ccc(F)cc1)C(=O)N[C@@H](CCCCNC(C)C)C(=O)N1CCC[C@H]1C(=O)N[C@H](C)C(N)=O [Compound 199, (3-10)[N-(3-(4-Fluorophenyl)propionyl)-D-1-Nal^3 -NMeTyr^5 -D-Lys^6 -Lys^8 (N-epsilon-isopropyl)-D-Ala^10]LHRH] ({Propanoyl(3-(4-F-phenyl))}-[d1Nal]S[NMeY][dK]L[Lys(iPr)]P[dA]-NH2)",0.00832
5,"CCNC(=O)[C@@H]1CCCN1C(=O)[C@H](CCCNC(=N)N)NC(=O)[C@H](CC(C)C)NC(=O)[C@@H](Cc1c[nH]c2ccccc12)NC(=O)[C@H](Cc1ccc(O)cc1)N(C)C(=O)[C@H](CO)NC(=O)[C@H](Cc1cccc2ccccc12)NC(=O)CCc1ccc(Br)cc1 [Compound 160, (3-9)[N-(3-(4-Bromophenyl)propionyl) -1-Nal^3 -NMeTyr^5 -DTrp^6 -Pro^9 NHEt]LHRH] (X9-[1Nal]S[NMeY][dW]LRP-NHEt)",0.11
6,"CC(C)C[C@H](NC(=O)[C@@H](Cc1cccnc1)NC(=O)[C@H](Cc1ccc(O)cc1)NC(=O)[C@H](CO)NC(=O)[C@@H](Cc1cccc2ccccc12)NC(=O)CCc1ccc(F)cc1)C(=O)N[C@@H](CCCCNC(C)C)C(=O)N1CCC[C@H]1C(=O)N[C@H](C)C(N)=O [Compound 201, (3-10)[N-(3-(4-Fluorophenyl)propionyl)-D-1-Nal^3 -D-3Pal^6 -Lys^8 (N-epsilon-isopropyl)-D-Ala^10]LHRH] ({Propanoyl(3-(4-F-phenyl))}-[d1Nal]SY[d3Pal]L[Lys(iPr)]P[dA]-NH2)",0.0204
7,"CC(C)C[C@H](NC(=O)[C@@H](CCCCN)NC(=O)[C@H](Cc1ccc(O)cc1)N(C)C(=O)[C@H](CO)NC(=O)[C@@H](Cc1cccs1)NC(=O)[C@H](Cc1ccc(Cl)cc1)NC(=O)N1CCOCC1)C(=O)N[C@@H](CCCNC(=N)N)C(=O)N1CCC[C@H]1C(=O)N[C@H](C)C(N)=O [Compound 230, (2-10)[N-(alpha-Morpholinocarbonyl)-4-Cl-Phe^2 -D-Thia^3 -NMeTyr^5 -D-Lys^6 -D-Ala^10]LHRH] ({Morpholide-CO}-[Phe(4-Cl)][d2Thi]S[NMeY][dK]LRP[dA]-NH2)",0.11
